Results as given in patent US20030099960A1, “Compositions and methods for optimizing UGT2B7 substrate dosings and for predicting UGT2B7 substrate toxicity” (The University of Chicago, priority 2001, published 2003).
Where two headings read alike, the source gives them in different places.

Tests used:
[1] = Epirubicin glucuronidation assay in normal human liver microsomes; settings: for Formation rate of epirubicin glucuronide: normal liver microsomes, mean ± SD of 47 individuals, epirubicin 200 μM, 3 mg/ml protein, 5 mM UDPGA, 4 h
Method: (§1) For this purpose, dried samples were reconstituted with 0.2 ml of sodium phosphate buffer (0.1 M, pH 6.8) containing 1000 U of β-glucuronidase (type VII, from E. coli) and incubated overnight at 37° C. Reference samples containing no enzyme were treated identically.
(§2) The mobile phase consisted of 30% acetonitrile and 70% 50 mM sodium dihydrogen phosphate (pH adjusted to 4 with 8.5% ortho-phosphoric acid).
(§3) Two separate experiments in triplicate were performed. […] Catalytic efficiencies (Vmax/Km) were also calculated.

[2] = mean ± SD, triplicate
Method: as §1, §2

human UGT2B7 = molecular target: T1, human UGT2B7 (Homo sapiens, UniProt P16662); settings: for Formation rate of epirubicin glucuronide: cDNA expressed UGT2B7 microsomes, mean ± SD, triplicate
T1 sequence (P16662 24-529): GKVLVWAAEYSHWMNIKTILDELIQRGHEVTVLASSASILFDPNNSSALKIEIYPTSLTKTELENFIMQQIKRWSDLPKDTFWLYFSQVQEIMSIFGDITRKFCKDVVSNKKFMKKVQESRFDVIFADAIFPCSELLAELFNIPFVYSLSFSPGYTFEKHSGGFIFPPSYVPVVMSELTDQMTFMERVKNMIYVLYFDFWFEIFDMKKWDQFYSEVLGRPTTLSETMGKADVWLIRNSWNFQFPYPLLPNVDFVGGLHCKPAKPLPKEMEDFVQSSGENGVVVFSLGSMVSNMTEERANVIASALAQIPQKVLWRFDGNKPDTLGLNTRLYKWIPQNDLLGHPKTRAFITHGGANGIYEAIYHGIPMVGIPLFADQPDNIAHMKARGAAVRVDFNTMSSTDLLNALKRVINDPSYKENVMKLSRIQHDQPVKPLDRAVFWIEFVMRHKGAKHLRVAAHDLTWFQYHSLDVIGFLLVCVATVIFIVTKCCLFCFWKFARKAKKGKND
From the text: (§4) Microsomes from human lymphoblasts and insect cells (BTI-TN-5B1-4) both transfected with a vector containing human UGT1A1, UGT1A3, UGT1A4, UGT1A6, UGT1A9 and UGT2B15 complementary DNA (cDNA) and their negative control (microsomes from cells infected with wild-type vector) were obtained from Gentest Corp. (Woburn, Mass.). Microsomes from insect cells (SF-9) infected with a baculovirus containing human cDNA for UGT2B7 and their negative control were purchased from PanVera (Madison, Wis.).
as §1, §2, §3

human UGT1A3 = molecular target: T2, human UGT1A3 (Homo sapiens, UniProt P35503); assay: Epirubicin glucuronidation in microsomes expressing UGT1A3; settings: Nd = not detectable
T2 sequence (P35503 29-534): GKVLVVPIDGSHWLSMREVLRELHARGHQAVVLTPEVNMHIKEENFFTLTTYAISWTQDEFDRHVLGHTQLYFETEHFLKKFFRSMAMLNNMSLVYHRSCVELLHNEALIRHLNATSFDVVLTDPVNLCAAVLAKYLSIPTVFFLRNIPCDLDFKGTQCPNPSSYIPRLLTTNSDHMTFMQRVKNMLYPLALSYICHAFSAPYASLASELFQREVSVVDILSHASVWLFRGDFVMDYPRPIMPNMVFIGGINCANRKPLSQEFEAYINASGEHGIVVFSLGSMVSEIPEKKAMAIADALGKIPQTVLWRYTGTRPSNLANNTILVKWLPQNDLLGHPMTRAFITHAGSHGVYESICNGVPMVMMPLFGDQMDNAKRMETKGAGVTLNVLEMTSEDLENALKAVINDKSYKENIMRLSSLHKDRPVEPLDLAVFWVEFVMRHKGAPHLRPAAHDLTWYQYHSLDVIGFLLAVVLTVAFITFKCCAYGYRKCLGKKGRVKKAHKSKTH
From the text: as §4, §1, §2

human UGT1A9 = molecular target: T3, human UGT1A9 (Homo sapiens, UniProt O60656); assay: Epirubicin glucuronidation in microsomes expressing UGT1A9; settings: Nd = not detectable
T3 sequence (O60656 26-530): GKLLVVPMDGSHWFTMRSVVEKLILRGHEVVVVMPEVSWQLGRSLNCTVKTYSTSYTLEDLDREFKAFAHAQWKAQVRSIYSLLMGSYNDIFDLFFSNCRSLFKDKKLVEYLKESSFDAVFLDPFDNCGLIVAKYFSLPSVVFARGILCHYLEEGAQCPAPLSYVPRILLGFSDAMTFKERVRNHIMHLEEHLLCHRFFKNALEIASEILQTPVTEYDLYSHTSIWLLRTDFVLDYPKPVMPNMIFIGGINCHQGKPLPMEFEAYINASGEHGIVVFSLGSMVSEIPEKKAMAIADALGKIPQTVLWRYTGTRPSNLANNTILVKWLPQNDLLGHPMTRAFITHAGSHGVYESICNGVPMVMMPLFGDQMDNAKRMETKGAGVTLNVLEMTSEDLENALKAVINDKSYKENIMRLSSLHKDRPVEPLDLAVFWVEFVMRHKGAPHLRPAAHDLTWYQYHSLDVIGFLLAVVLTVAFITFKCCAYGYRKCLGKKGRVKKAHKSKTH
From the text: as §4, §1, §2

human UGT2B15 = molecular target: T4, human UGT2B15 (Homo sapiens, UniProt P54855); assay: Epirubicin glucuronidation in microsomes expressing UGT2B15; settings: Nd = not detectable
T4 sequence (P54855 24-530): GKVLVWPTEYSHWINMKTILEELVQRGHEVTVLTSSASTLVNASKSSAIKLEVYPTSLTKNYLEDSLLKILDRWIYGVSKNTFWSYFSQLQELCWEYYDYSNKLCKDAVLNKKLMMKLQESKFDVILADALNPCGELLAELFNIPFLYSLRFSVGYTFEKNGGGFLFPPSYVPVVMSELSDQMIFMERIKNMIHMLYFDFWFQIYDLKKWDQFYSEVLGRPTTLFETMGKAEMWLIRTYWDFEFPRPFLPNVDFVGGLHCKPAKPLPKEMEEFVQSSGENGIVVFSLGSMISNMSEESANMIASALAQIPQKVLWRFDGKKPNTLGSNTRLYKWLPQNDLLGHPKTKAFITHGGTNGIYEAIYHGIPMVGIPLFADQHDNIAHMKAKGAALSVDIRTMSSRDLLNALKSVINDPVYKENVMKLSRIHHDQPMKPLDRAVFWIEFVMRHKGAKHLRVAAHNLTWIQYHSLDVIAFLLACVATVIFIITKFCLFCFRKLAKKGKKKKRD
From the text: as §4, §1, §2

human UGT1A1 = molecular target: T5, human UGT1A1 (Homo sapiens, UniProt P22309); assay: Epirubicin glucuronidation in microsomes expressing UGT1A1; settings: Nd = not detectable
T5 sequence (P22309 26-533): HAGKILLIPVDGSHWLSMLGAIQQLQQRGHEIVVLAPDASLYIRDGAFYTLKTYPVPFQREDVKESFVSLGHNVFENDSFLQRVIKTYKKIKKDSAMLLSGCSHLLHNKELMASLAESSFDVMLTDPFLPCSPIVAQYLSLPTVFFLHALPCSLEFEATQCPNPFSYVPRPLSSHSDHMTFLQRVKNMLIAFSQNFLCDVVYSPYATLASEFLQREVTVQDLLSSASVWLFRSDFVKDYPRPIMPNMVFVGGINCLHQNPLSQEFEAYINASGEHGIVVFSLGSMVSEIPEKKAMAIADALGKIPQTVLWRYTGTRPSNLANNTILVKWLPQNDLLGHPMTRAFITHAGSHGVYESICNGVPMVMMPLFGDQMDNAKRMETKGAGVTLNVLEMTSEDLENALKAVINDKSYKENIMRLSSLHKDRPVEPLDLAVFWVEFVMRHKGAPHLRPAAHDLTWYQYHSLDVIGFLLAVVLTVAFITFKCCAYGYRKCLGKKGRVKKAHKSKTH
From the text: as §4, §1, §2

[3] = cited from earlier work
human UGT1A6 = molecular target: T6, human UGT1A6 (Homo sapiens, UniProt P19224); assay: Epirubicin glucuronidation in microsomes expressing UGT1A6; settings: Nd = not detectable
T6 sequence (P19224 27-532): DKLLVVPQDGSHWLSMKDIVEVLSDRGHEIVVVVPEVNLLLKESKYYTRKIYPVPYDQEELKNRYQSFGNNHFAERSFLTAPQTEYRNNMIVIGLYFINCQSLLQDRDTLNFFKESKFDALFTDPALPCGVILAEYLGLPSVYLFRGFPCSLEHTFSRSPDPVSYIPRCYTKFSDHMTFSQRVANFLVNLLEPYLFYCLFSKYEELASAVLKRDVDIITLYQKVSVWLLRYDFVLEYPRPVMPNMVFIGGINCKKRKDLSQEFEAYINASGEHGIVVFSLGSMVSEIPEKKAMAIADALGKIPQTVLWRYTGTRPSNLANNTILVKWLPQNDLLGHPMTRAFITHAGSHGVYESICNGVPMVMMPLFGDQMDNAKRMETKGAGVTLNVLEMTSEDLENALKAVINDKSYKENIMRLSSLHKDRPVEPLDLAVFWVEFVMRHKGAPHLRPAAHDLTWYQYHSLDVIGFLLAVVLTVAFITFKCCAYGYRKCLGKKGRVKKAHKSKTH
From the text: as §4, §1, §2

human UGT1A4 = molecular target: T7, human UGT1A4 (Homo sapiens, UniProt P22310); assay: Epirubicin glucuronidation in microsomes expressing UGT1A4; settings: Nd = not detectable
T7 sequence (P22310 29-534): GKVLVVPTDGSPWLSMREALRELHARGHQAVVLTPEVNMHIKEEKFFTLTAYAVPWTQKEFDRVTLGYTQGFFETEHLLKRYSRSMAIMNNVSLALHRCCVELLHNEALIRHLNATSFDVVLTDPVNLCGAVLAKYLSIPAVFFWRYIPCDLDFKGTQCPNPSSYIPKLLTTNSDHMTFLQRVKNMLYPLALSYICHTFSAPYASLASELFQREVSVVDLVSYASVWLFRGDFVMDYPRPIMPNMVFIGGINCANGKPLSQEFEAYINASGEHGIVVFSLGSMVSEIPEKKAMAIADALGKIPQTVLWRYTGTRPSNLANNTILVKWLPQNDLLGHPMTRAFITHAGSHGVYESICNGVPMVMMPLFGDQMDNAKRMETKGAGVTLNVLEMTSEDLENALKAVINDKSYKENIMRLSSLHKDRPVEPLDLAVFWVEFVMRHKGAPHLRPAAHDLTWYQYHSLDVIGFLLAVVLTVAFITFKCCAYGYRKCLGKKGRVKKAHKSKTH
From the text: as §4, §1, §2

[4] = among 47 normal liver microsomes
[5] = listed as epirubicin glucuronide

Question: For COc1cccc2c1C(=O)c1c(O)c3c(c(O)c1C2=O)C[C@@](O)(C(=O)CO)C[C@@H]3O[C@H]1C[C@H](N)[C@@H](O[C@@H]2O[C@H](C(=O)O)[C@@H](O)[C@H](O)[C@H]2O)[C@H](C)O1 [Epirubicin glucuronide, 4′-O-β-D-glucuronyl-4′-epi-doxorubicin], which “Coefficient of variation of epirubicin glucuronide formation rate” value [1, 4] is on record?
Answer: The value was 24%.

Question: What about the “Difference in epirubicin glucuronide formation rate among livers” value [1, 4] of the same compound?
Answer: The value was 4 fold.

Question: And the “Formation rate of epirubicin glucuronide” value [1]?
Answer: Its value is 138 ± 37 pmol/min/mg.

Question: And the “Formation rate of epirubicin glucuronide” value [1, 5]?
Answer: Its value is 138 ± 37 pmol/min/mg.

Question: And the “Apparent Vmax of epirubicin glucuronidation” value (“Apparent Vmax” for short) ([1]; pooled human liver microsomes, mean ± SE)?
Answer: The value was 798 ± 87 pmol/min/mg.

Question: What about the “Apparent Vmax” value ([1]; pooled human liver microsomes, mean ± SE, listed as epirubicin glucuronide) of the same compound?
Answer: The value was 798 ± 87 pmol/min/mg.

Question: What about the Km ([1]; read-out: Apparent Km of epirubicin glucuronidation, pooled human liver microsomes, epirubicin 50-1000 μM, mean ± SE) of the same compound?
Answer: Its Km is 568 ± 130 µM.

Question: And the “Formation rate of epirubicin glucuronide” value ([2]; CN-I patient n.1 liver microsomes)?
Answer: The value was 144 ± 6 pmol/min/mg.

Question: What about the “Formation rate of epirubicin glucuronide” value ([2]; CN-I patient n.2 liver microsomes) of the same compound?
Answer: Its value is 104 ± 6 pmol/min/mg.

Question: What about the “Formation rate of epirubicin glucuronide” value (human UGT2B7) of the same compound?
Answer: The value was 63 ± 4 pmol/min/mg.

Question: And the “Formation rate of epirubicin glucuronide” value (human UGT2B7; [5])?
Answer: The value was 63 ± 4 pmol/min/mg.

Question: And the “Apparent Vmax” value (human UGT2B7; microsomes (insect baculosomes) expressing UGT2B7, mean ± SE)?
Answer: Its value is 99 ± 4 pmol/min/mg.

Question: What about the “Apparent Vmax” value (human UGT2B7; microsomes (insect baculosomes) expressing UGT2B7, mean ± SE, listed as epirubicin glucuronide) of the same compound?
Answer: The value was 99 ± 4 pmol/min/mg.

Question: And the Km (human UGT2B7; read-out: Apparent Km of epirubicin glucuronidation, microsomes (insect baculosomes) expressing UGT2B7, mean ± SE)?
Answer: Its Km is 149 ± 22 µM.

Question: What does the source list for COc1cccc2c1C(=O)c1c(O)c3c(c(O)c1C2=O)C[C@@](O)(C(=O)CO)C[C@@H]3O[C@H]1C[C@H](N)[C@@H](O)[C@H](C)O1 [Epirubicin, 4′-epi-doxorubicin]?
Answer: Formation rate of epirubicin glucuronide (human UGT1A3): No epirubicin glucuronidating activity; Formation rate of epirubicin glucuronide (human UGT1A9): No epirubicin glucuronidating activity; Formation rate of epirubicin glucuronide (human UGT2B15): No epirubicin glucuronidating activity; Formation rate of epirubicin glucuronide (human UGT1A1): No epirubicin glucuronidating activity; Median half-life, first phase ([3]; 3-compartment model): about 3.2 minutes; Median half-life, second phase ([3]; 3-compartment model): ~1.2 h; Median half-life, third phase ([3]; 3-compartment model): ~32 h; Fraction excreted in the urine ([3]; elimination primarily biliary): less than 15%; Total plasma clearance ([3]; human, in vivo): about 46 L/h/m^2; Formation rate of epirubicin glucuronide (human UGT1A6): No epirubicin glucuronidating activity; Formation rate of epirubicin glucuronide (human UGT1A4): No epirubicin glucuronidating activity
